#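 Five compound concentrations were applied to cells in 96-well plates for 48 hours; endpoints were derived by simple linear interpolation of the resulting dose-response curve. The concentration for 50% growth inhibition is given as GI50. At the TGI there is no net growth.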
# Columns and labels:
# Assay in all cases: NCI tumour cell line growth inhibition, 48 h
# 786-0 renal = system: 786-0 renal
# A498 renal = system: A498 renal
# A549 NSCLC = system: A549 NSCLC
# ACHN renal = system: ACHN renal
# BT-549 breast = system: BT-549 breast
# CAKI-1 renal = system: CAKI-1 renal
# CCRF-CEM leukemia = system: CCRF-CEM leukemia
# DU-145 prostate = system: DU-145 prostate
# EKVX NSCLC = system: EKVX NSCLC
# HCC-2998 colon = system: HCC-2998 colon
# HCT-116 colon = system: HCT-116 colon
# HCT-15 colon = system: HCT-15 colon
# HL-60(TB) leukemia = system: HL-60(TB) leukemia
# HOP-62 NSCLC = system: HOP-62 NSCLC
# HOP-92 NSCLC = system: HOP-92 NSCLC
# HT29 colon = system: HT29 colon
# IGROV1 ovarian = system: IGROV1 ovarian
# K-562 leukemia = system: K-562 leukemia
# KM12 colon = system: KM12 colon
# LOX IMVI melanoma = system: LOX IMVI melanoma
# M14 melanoma = system: M14 melanoma
# MALME-3M melanoma = system: MALME-3M melanoma
# MCF7 breast = system: MCF7 breast
# MDA-MB-231 breast = system: MDA-MB-231 breast
# MDA-MB-435 = system: MDA-MB-435
# MOLT-4 leukemia = system: MOLT-4 leukemia
# NCI-H226 lung = system: NCI-H226 lung
# NCI-H23 lung = system: NCI-H23 lung
# NCI-H460 lung = system: NCI-H460 lung
# NCI-H522 lung = system: NCI-H522 lung
# NCI/ADR-RES ovarian = system: NCI/ADR-RES ovarian
# OVCAR-3 ovarian = system: OVCAR-3 ovarian
# OVCAR-4 ovarian = system: OVCAR-4 ovarian
# OVCAR-5 ovarian = system: OVCAR-5 ovarian
# OVCAR-8 ovarian = system: OVCAR-8 ovarian
# PC-3 prostate = system: PC-3 prostate
# RPMI-8226 leukemia = system: RPMI-8226 leukemia
# RXF 393 renal = system: RXF 393 renal
# SF-268 CNS = system: SF-268 CNS
# SF-295 CNS = system: SF-295 CNS
# SF-539 CNS = system: SF-539 CNS
# SK-MEL-2 melanoma = system: SK-MEL-2 melanoma
# SK-MEL-5 melanoma = system: SK-MEL-5 melanoma
# SK-OV-3 ovarian = system: SK-OV-3 ovarian
# SN12C renal = system: SN12C renal
# SNB-75 CNS = system: SNB-75 CNS
# SR leukemia = system: SR leukemia
# SW-620 colon = system: SW-620 colon
# T-47D breast = system: T-47D breast
# TK-10 renal = system: TK-10 renal
# U251 CNS = system: U251 CNS
# UACC-257 melanoma = system: UACC-257 melanoma
# UACC-62 melanoma = system: UACC-62 melanoma
# UO-31 renal = system: UO-31 renal
# COLO 205 colon = system: COLO 205 colon
# SK-MEL-28 melanoma = system: SK-MEL-28 melanoma
# SNB-19 CNS = system: SNB-19 CNS
compound,measurement,setting,value
C[C@]12CCC3c4ccc(O)cc4CCC3C1CC[C@@]2(O)C#Cc1ccc(C#C/C=C\C#Cc2ccccc2N)cc1 (stereo partly drawn),GI50,786-0 renal,20.5 µM
same,TGI,786-0 renal,57.5 µM
same,GI50,A498 renal,21.7 µM
same,TGI,A498 renal,41 µM
same,GI50,A549 NSCLC,32.9 µM
same,TGI,A549 NSCLC,> 100 µM
same,GI50,ACHN renal,17.8 µM
same,TGI,ACHN renal,43.6 µM
same,GI50,BT-549 breast,19.2 µM
same,TGI,BT-549 breast,45.1 µM
same,GI50,CAKI-1 renal,20.6 µM
same,TGI,CAKI-1 renal,68.6 µM
same,GI50,CCRF-CEM leukemia,> 100 µM
same,TGI,CCRF-CEM leukemia,> 100 µM
same,GI50,DU-145 prostate,23.9 µM
same,TGI,DU-145 prostate,> 100 µM
same,GI50,EKVX NSCLC,20.3 µM
same,TGI,EKVX NSCLC,65.5 µM
same,GI50,HCC-2998 colon,25.6 µM
same,TGI,HCC-2998 colon,54.5 µM
same,GI50,HCT-116 colon,12.3 µM
same,TGI,HCT-116 colon,> 100 µM
same,GI50,HCT-15 colon,22.2 µM
same,TGI,HCT-15 colon,> 100 µM
same,GI50,HL-60(TB) leukemia,26.7 µM
same,TGI,HL-60(TB) leukemia,> 100 µM
same,GI50,HOP-62 NSCLC,28.7 µM
same,TGI,HOP-62 NSCLC,70 µM
same,GI50,HOP-92 NSCLC,16 µM
same,TGI,HOP-92 NSCLC,46.5 µM
same,GI50,HT29 colon,25.8 µM
same,TGI,HT29 colon,> 100 µM
same,GI50,IGROV1 ovarian,87.1 µM
same,TGI,IGROV1 ovarian,> 100 µM
same,GI50,K-562 leukemia,12.4 µM
same,TGI,K-562 leukemia,86.5 µM
same,GI50,KM12 colon,9.66 µM
same,TGI,KM12 colon,> 100 µM
same,GI50,LOX IMVI melanoma,35.8 µM
same,TGI,LOX IMVI melanoma,> 100 µM
same,GI50,M14 melanoma,29.5 µM
same,TGI,M14 melanoma,> 100 µM
same,GI50,MALME-3M melanoma,17.2 µM
same,TGI,MALME-3M melanoma,48.1 µM
same,GI50,MCF7 breast,0.308 µM
same,TGI,MCF7 breast,> 100 µM
same,GI50,MDA-MB-231 breast,21 µM
same,TGI,MDA-MB-231 breast,53.5 µM
same,GI50,MDA-MB-435,31.7 µM
same,TGI,MDA-MB-435,> 100 µM
same,GI50,MOLT-4 leukemia,57.5 µM
same,TGI,MOLT-4 leukemia,> 100 µM
same,GI50,NCI-H226 lung,20.2 µM
same,TGI,NCI-H226 lung,48.2 µM
same,GI50,NCI-H23 lung,26.5 µM
same,TGI,NCI-H23 lung,> 100 µM
same,GI50,NCI-H460 lung,12.6 µM
same,TGI,NCI-H460 lung,> 100 µM
same,GI50,NCI-H522 lung,17 µM
same,TGI,NCI-H522 lung,> 100 µM
same,GI50,NCI/ADR-RES ovarian,17.7 µM
same,TGI,NCI/ADR-RES ovarian,52.2 µM
same,GI50,OVCAR-3 ovarian,13.8 µM
same,TGI,OVCAR-3 ovarian,48 µM
same,GI50,OVCAR-4 ovarian,23.6 µM
same,TGI,OVCAR-4 ovarian,> 100 µM
same,GI50,OVCAR-5 ovarian,38.4 µM
same,TGI,OVCAR-5 ovarian,> 100 µM
same,GI50,OVCAR-8 ovarian,47.4 µM
same,TGI,OVCAR-8 ovarian,> 100 µM
same,GI50,PC-3 prostate,15.6 µM
same,TGI,PC-3 prostate,55.3 µM
same,GI50,RPMI-8226 leukemia,7.56 µM
same,TGI,RPMI-8226 leukemia,79.7 µM
same,GI50,RXF 393 renal,36.3 µM
same,TGI,RXF 393 renal,> 100 µM
same,GI50,SF-268 CNS,24.8 µM
same,TGI,SF-268 CNS,> 100 µM
same,GI50,SF-295 CNS,17.1 µM
same,TGI,SF-295 CNS,> 100 µM
same,GI50,SF-539 CNS,21.3 µM
same,TGI,SF-539 CNS,52.6 µM
same,GI50,SK-MEL-2 melanoma,42.2 µM
same,TGI,SK-MEL-2 melanoma,> 100 µM
same,GI50,SK-MEL-5 melanoma,17.9 µM
same,TGI,SK-MEL-5 melanoma,41 µM
same,GI50,SK-OV-3 ovarian,39.7 µM
same,TGI,SK-OV-3 ovarian,> 100 µM
same,GI50,SN12C renal,21.7 µM
same,TGI,SN12C renal,61.1 µM
same,GI50,SNB-75 CNS,> 100 µM
same,TGI,SNB-75 CNS,> 100 µM
same,GI50,SR leukemia,> 100 µM
same,TGI,SR leukemia,> 100 µM
same,GI50,SW-620 colon,40 µM
same,TGI,SW-620 colon,> 100 µM
same,GI50,T-47D breast,> 100 µM
same,TGI,T-47D breast,> 100 µM
same,GI50,TK-10 renal,36.6 µM
same,TGI,TK-10 renal,> 100 µM
same,GI50,U251 CNS,19 µM
same,TGI,U251 CNS,80.4 µM
same,GI50,UACC-257 melanoma,28.7 µM
same,TGI,UACC-257 melanoma,> 100 µM
same,GI50,UACC-62 melanoma,15.2 µM
same,TGI,UACC-62 melanoma,41.2 µM
same,GI50,UO-31 renal,15.9 µM
same,TGI,UO-31 renal,85.1 µM
COc1ccc(-c2cc(-c3ccc(Nc4ccnc5cc(C(F)(F)F)ccc45)cc3)nc(N)c2C#N)cc1,TGI,786-0 renal,> 100 µM
same,TGI,A498 renal,> 100 µM
same,TGI,A549 NSCLC,> 100 µM
same,TGI,ACHN renal,> 100 µM
same,TGI,BT-549 breast,> 100 µM
same,TGI,CAKI-1 renal,> 100 µM
same,TGI,COLO 205 colon,> 100 µM
same,TGI,DU-145 prostate,> 100 µM
same,TGI,EKVX NSCLC,> 100 µM
same,TGI,HCC-2998 colon,> 100 µM
same,TGI,HCT-116 colon,78.7 µM
same,TGI,HCT-15 colon,> 100 µM
same,TGI,HL-60(TB) leukemia,> 100 µM
same,TGI,HOP-62 NSCLC,> 100 µM
same,TGI,HOP-92 NSCLC,90 µM
same,TGI,HT29 colon,> 100 µM
same,TGI,K-562 leukemia,> 100 µM
same,TGI,KM12 colon,> 100 µM
same,TGI,LOX IMVI melanoma,> 100 µM
same,TGI,M14 melanoma,> 100 µM
same,TGI,MALME-3M melanoma,> 100 µM
same,TGI,MCF7 breast,> 100 µM
same,TGI,MDA-MB-231 breast,> 100 µM
same,TGI,MDA-MB-435,> 100 µM
same,TGI,MOLT-4 leukemia,> 100 µM
same,TGI,NCI-H226 lung,> 100 µM
same,TGI,NCI-H23 lung,> 100 µM
same,TGI,NCI-H460 lung,> 100 µM
same,TGI,NCI/ADR-RES ovarian,> 100 µM
same,TGI,OVCAR-3 ovarian,33.7 µM
same,TGI,OVCAR-4 ovarian,> 100 µM
same,TGI,OVCAR-5 ovarian,> 100 µM
same,TGI,PC-3 prostate,> 100 µM
same,TGI,RPMI-8226 leukemia,> 100 µM
same,TGI,RXF 393 renal,> 100 µM
same,TGI,SF-295 CNS,> 100 µM
same,TGI,SF-539 CNS,> 100 µM
same,TGI,SK-MEL-2 melanoma,> 100 µM
same,TGI,SK-MEL-28 melanoma,> 100 µM
same,TGI,SK-MEL-5 melanoma,> 100 µM
same,TGI,SK-OV-3 ovarian,> 100 µM
same,TGI,SNB-19 CNS,> 100 µM
same,TGI,SNB-75 CNS,71.6 µM
same,TGI,SR leukemia,> 100 µM
same,TGI,SW-620 colon,> 100 µM
same,TGI,T-47D breast,> 100 µM
same,TGI,TK-10 renal,> 100 µM
same,TGI,U251 CNS,> 100 µM
same,TGI,UACC-62 melanoma,> 100 µM
same,TGI,UO-31 renal,> 100 µM

# Source: PubChem BioAssay (NCI)
